In US11672251B2, “Herbicidally active pyridyl-/pyrimidyl-pyrimidine derivatives” (Syngenta Participations AG, priority 2017, dated 2023):

How the values were obtained:
Format in all cases: in vivo
[1] = tested on: Abutilon theophrasti (ABUTH); assay: B2 post-emergence herbicidal activity; conditions: Test B2a; post-emergence (sprayed after 8 days cultivation); rate 1000 g/ha; evaluated after 13 days; scale 5=total damage to plant, 0=no damage to plant
Procedure: (§1) Seeds of a variety of test species were sown in standard soil in pots: Triticum aestivium (TRZAW), Avena fatua (AVEFA), Alopecurus myosuroides (ALOMY), Echinochloa crus-galli (ECHCG), Lolium perenne (LOLPE), Zea Mays (ZEAMX), Abutilon theophrasti (ABUTH), Amaranthus retroflexus (AMARE) and Setaria faberi (SETFA). After 8 days cultivation (post-emergence) under controlled conditions in a glasshouse (at 24/16° C., day/night; 14 hours light; 65% humidity), the plants were sprayed with an aqueous spray solution derived from the formulation of the technical active ingredient in acetone/water (50:50) solution containing 0.5% Tween 20 (polyoxyethelyene sorbitan monolaurate, CAS RN 9005-64-5). The test plants were then grown in a glasshouse under controlled conditions (at 24/16° C., day/night; 14 hours light; 65% humidity) and watered twice daily. After 13 days, the test was evaluated (5=total damage to plant; 0=no damage to plant).

[2] = tested on: Echinochloa crus-galli (ECHCG); assay: B2 post-emergence herbicidal activity; conditions: post-emergence (sprayed after 8 days cultivation), rate 1000 g/ha, evaluated after 13 days, scale 5=total damage to plant, 0=no damage to plant
Procedure: as §1

[3] = tested on: Amaranthus retroflexus (AMARE); assay: B2 post-emergence herbicidal activity; conditions: Test B2a; post-emergence (sprayed after 8 days cultivation); rate 1000 g/ha; evaluated after 13 days; scale 5=total damage to plant, 0=no damage to plant
Procedure: as §1

Lolium perenne (LOLPE) [4] = assay: B2 post-emergence herbicidal activity; conditions: post-emergence (sprayed after 8 days cultivation), rate 1000 g/ha, evaluated after 13 days, scale 5=total damage to plant, 0=no damage to plant
Procedure: as §1

Zea Mays (ZEAMX) [5] = assay: B2 post-emergence herbicidal activity; conditions: Test B2a; post-emergence (sprayed after 8 days cultivation); rate 1000 g/ha; evaluated after 13 days; scale 5=total damage to plant, 0=no damage to plant
Procedure: as §1

Setaria faberi (SETFA) [6] = assay: B2 post-emergence herbicidal activity; conditions: post-emergence (sprayed after 8 days cultivation), rate 1000 g/ha, evaluated after 13 days, scale 5=total damage to plant, 0=no damage to plant
Procedure: as §1

[7] = tested on: Abutilon theophrasti (ABUTH); assay: B1 pre-emergence herbicidal activity; conditions: Test 1a, rate 1000 g/ha, evaluated after 13 days, scale 5=total damage to plant, 0=no damage to plant
Procedure: as §1, with “After” for “After 8 days”, “for one day (pre-emergence)” for “(post-emergence)”

[8] = tested on: Echinochloa crus-galli (ECHCG); assay: B1 pre-emergence herbicidal activity; conditions: rate 1000 g/ha, evaluated after 13 days, scale 5=total damage to plant, 0=no damage to plant
Procedure: as §1, with “After” for “After 8 days”, “for one day (pre-emergence)” for “(post-emergence)”

[9] = tested on: Amaranthus retroflexus (AMARE); assay: B1 pre-emergence herbicidal activity; conditions: Test 1a, rate 1000 g/ha, evaluated after 13 days, scale 5=total damage to plant, 0=no damage to plant
Procedure: as §1, with “After” for “After 8 days”, “for one day (pre-emergence)” for “(post-emergence)”

Lolium perenne (LOLPE) [10] = assay: B1 pre-emergence herbicidal activity; conditions: rate 1000 g/ha, evaluated after 13 days, scale 5=total damage to plant, 0=no damage to plant
Procedure: as §1, with “After” for “After 8 days”, “for one day (pre-emergence)” for “(post-emergence)”

Zea Mays (ZEAMX) [11] = assay: B1 pre-emergence herbicidal activity; conditions: Test 1a, rate 1000 g/ha, evaluated after 13 days, scale 5=total damage to plant, 0=no damage to plant
Procedure: as §1, with “After” for “After 8 days”, “for one day (pre-emergence)” for “(post-emergence)”

Setaria faberi (SETFA) [12] = assay: B1 pre-emergence herbicidal activity; conditions: rate 1000 g/ha, evaluated after 13 days, scale 5=total damage to plant, 0=no damage to plant
Procedure: as §1, with “After” for “After 8 days”, “for one day (pre-emergence)” for “(post-emergence)”

[13] = tested on: Triticum aestivium (TRZAW); assay: B2 post-emergence herbicidal activity; conditions: Test B2b; post-emergence (sprayed after 8 days cultivation); rate 1000 g/ha; evaluated after 13 days; scale 5=total damage to plant, 0=no damage to plant
Procedure: as §1

Avena fatua (AVEFA) [14] = assay: B2 post-emergence herbicidal activity; conditions: Test B2b; post-emergence (sprayed after 8 days cultivation); rate 1000 g/ha; evaluated after 13 days; scale 5=total damage to plant, 0=no damage to plant
Procedure: as §1

[15] = tested on: Alopecurus myosuroides (ALOMY); assay: B2 post-emergence herbicidal activity; conditions: Test B2b; post-emergence (sprayed after 8 days cultivation); rate 1000 g/ha; evaluated after 13 days; scale 5=total damage to plant, 0=no damage to plant
Procedure: as §1

[16] = tested on: Triticum aestivium (TRZAW); assay: B1 pre-emergence herbicidal activity; conditions: Test 1b, rate 1000 g/ha, evaluated after 13 days, scale 5=total damage to plant, 0=no damage to plant
Procedure: as §1, with “After” for “After 8 days”, “for one day (pre-emergence)” for “(post-emergence)”

Avena fatua (AVEFA) [17] = assay: B1 pre-emergence herbicidal activity; conditions: Test 1b, rate 1000 g/ha, evaluated after 13 days, scale 5=total damage to plant, 0=no damage to plant
Procedure: as §1, with “After” for “After 8 days”, “for one day (pre-emergence)” for “(post-emergence)”

[18] = tested on: Alopecurus myosuroides (ALOMY); assay: B1 pre-emergence herbicidal activity; conditions: Test 1b, rate 1000 g/ha, evaluated after 13 days, scale 5=total damage to plant, 0=no damage to plant
Procedure: as §1, with “After” for “After 8 days”, “for one day (pre-emergence)” for “(post-emergence)”

Q: For Cc1nc(-c2cncc(F)c2)ncc1N [Compound D2, 2-(5-fluoro-3-pyridyl)-4-methyl-pyrimidin-5-amine], which “Control after post-emergence application, damage score: ABUTH” value [1] is on record?
A: Its value is 1.

Q: What about the “Control after post-emergence application, damage score: ECHCG” value ([2]; Test B2a) of the same compound?
A: Its value is 2.

Q: What about the “Control after post-emergence application, damage score: AMARE” value [3] of the same compound?
A: Its value is 1.

Q: And the “Control after post-emergence application, damage score: LOLPE” value (Lolium perenne (LOLPE) [4]; Test B2a)?
A: Its value is 1.

Q: What about the “Control after post-emergence application, damage score: ZEAMX” value (Zea Mays (ZEAMX) [5]) of the same compound?
A: Its value is 1.

Q: And the “Control after post-emergence application, damage score: SETFA” value (Setaria faberi (SETFA) [6]; Test B2a)?
A: The value was 3.

Q: And the “Control after pre-emergence application, damage score: ABUTH” value [7]?
A: Its value is 1.

Q: What about the “Control after pre-emergence application, damage score: ECHCG” value ([8]; Test 1a) of the same compound?
A: The value was 1.

Q: And the “Control after pre-emergence application, damage score: AMARE” value [9]?
A: Its value is 1.

Q: What about the “Control after pre-emergence application, damage score: LOLPE” value (Lolium perenne (LOLPE) [10]; Test 1a) of the same compound?
A: Its value is 0.

Q: What about the “Control after pre-emergence application, damage score: ZEAMX” value (Zea Mays (ZEAMX) [11]) of the same compound?
A: The value was 0.

Q: And the “Control after pre-emergence application, damage score: SETFA” value (Setaria faberi (SETFA) [12]; Test 1a)?
A: The value was 2.

Q: With Nc1cnc(-c2cncnc2)nc1C(F)(F)F [Compound D9] as the compound, how does the “Control after post-emergence application, damage score: TRAZW” value [13] read?
A: Its value is 0.

Q: And the “Control after post-emergence application, damage score: ECHCG” value ([2]; Test B2b)?
A: The value was 3.

Q: What about the “Control after post-emergence application, damage score: AVEFA” value (Avena fatua (AVEFA) [14]) of the same compound?
A: The value was 3.

Q: And the “Control after post-emergence application, damage score: LOLPE” value (Lolium perenne (LOLPE) [4]; Test B2b)?
A: The value was 2.

Q: And the “Control after post-emergence application, damage score: SETFA” value (Setaria faberi (SETFA) [6]; Test B2b)?
A: The value was 5.

Q: What about the “Control after post-emergence application, damage score: ALOMY” value [15] of the same compound?
A: Its value is 0.

Q: And the “Control after pre-emergence application, damage score: TRAZW” value [16]?
A: Its value is 0.

Q: And the “Control after pre-emergence application, damage score: ECHCG” value ([8]; Test 1b)?
A: The value was 3.

Q: And the “Control after pre-emergence application, damage score: AVEFA” value (Avena fatua (AVEFA) [17])?
A: Its value is 2.

Q: What about the “Control after pre-emergence application, damage score: LOLPE” value (Lolium perenne (LOLPE) [10]; Test 1b) of the same compound?
A: The value was 1.

Q: What about the “Control after pre-emergence application, damage score: SETFA” value (Setaria faberi (SETFA) [12]; Test 1b) of the same compound?
A: The value was 4.

Q: And the “Control after pre-emergence application, damage score: ALOMY” value [18]?
A: The value was 0.

Q: Which results are given for CNc1cnc(-c2cncc(F)c2)nc1C [Compound D1, 2-(5-fluoro-3-pyridyl)-N,4-dimethyl-pyrimidin-5-amine]?
A: Control after post-emergence application, damage score: ABUTH [1]: 0; Control after post-emergence application, damage score: ECHCG ([2]; Test B2a): 2; Control after post-emergence application, damage score: AMARE [3]: 0; Control after post-emergence application, damage score: LOLPE (Lolium perenne (LOLPE) [4]; Test B2a): 1; Control after post-emergence application, damage score: ZEAMX (Zea Mays (ZEAMX) [5]): 1; Control after post-emergence application, damage score: SETFA (Setaria faberi (SETFA) [6]; Test B2a): 3; Control after pre-emergence application, damage score: ABUTH [7]: 1; Control after pre-emergence application, damage score: ECHCG ([8]; Test 1a): 1; Control after pre-emergence application, damage score: AMARE [9]: 1; Control after pre-emergence application, damage score: LOLPE (Lolium perenne (LOLPE) [10]; Test 1a): 0; Control after pre-emergence application, damage score: ZEAMX (Zea Mays (ZEAMX) [11]): 0; Control after pre-emergence application, damage score: SETFA (Setaria faberi (SETFA) [12]; Test 1a): 3

Q: Which “Control after post-emergence application, damage score: TRAZW” value [13] does the source give for CCCN(CCC)c1cnc(-c2cncc(F)c2)nc1C(F)(F)F [Compound D14, 2-(5-fluoro-3-pyridyl)-N,N-dipropyl-4-(trifluoromethyl)pyrimidin-5-amine] here?
A: The value was 0.

Q: What about the “Control after post-emergence application, damage score: ECHCG” value ([2]; Test B2b) of the same compound?
A: Its value is 4.

Q: And the “Control after post-emergence application, damage score: AVEFA” value (Avena fatua (AVEFA) [14])?
A: The value was 3.

Q: And the “Control after post-emergence application, damage score: LOLPE” value (Lolium perenne (LOLPE) [4]; Test B2b)?
A: The value was 2.

Q: And the “Control after post-emergence application, damage score: SETFA” value (Setaria faberi (SETFA) [6]; Test B2b)?
A: Its value is 4.

Q: What about the “Control after post-emergence application, damage score: ALOMY” value [15] of the same compound?
A: The value was 1.

Q: And the “Control after pre-emergence application, damage score: TRAZW” value [16]?
A: The value was 1.

Q: What about the “Control after pre-emergence application, damage score: ECHCG” value ([8]; Test 1b) of the same compound?
A: The value was 2.

Q: What about the “Control after pre-emergence application, damage score: AVEFA” value (Avena fatua (AVEFA) [17]) of the same compound?
A: The value was 0.

Q: What about the “Control after pre-emergence application, damage score: LOLPE” value (Lolium perenne (LOLPE) [10]; Test 1b) of the same compound?
A: The value was 1.

Q: What about the “Control after pre-emergence application, damage score: SETFA” value (Setaria faberi (SETFA) [12]; Test 1b) of the same compound?
A: Its value is 2.

Q: And the “Control after pre-emergence application, damage score: ALOMY” value [18]?
A: Its value is 1.
